This series is described as follows: Human HepG2 cell viability assay in 384 well format. It is filed as toxicity, cell-based. The arrangement: dose 125 nL, time 70.5 hour; concentration not given beside the values. The conditions noted are these: HepG2 cells, read-out: Inhibition.

Molecules are shown by their SMILES.

For `CCCn1cc(C(=O)NCCS(N)(=O)=O)c2ccccc21`, the cytotoxicity at 70.5 h worked out at 15.9%.
The figure for `COc1ccc(Cl)cc1NCC(=O)N(Cc1cccnc1)C1CC1` is -7.28%.
As to `CC(c1nc(C2CC2)no1)N1CCN(CCn2ccccc2=O)CC1` (centres undefined), the cytotoxicity at 70.5 h was -4.93%.
Regarding `CCS(=O)(=O)NCCN1CCc2ccc(F)cc2C1C` (centres undefined), the cytotoxicity at 70.5 h was -4.91%.
The value for `Cc1nn(C)c(C)c1C1CCCN1c1ncnc2c1CCC2` (centres undefined) was 1.18%; that for `CN(CC(=O)NCCc1cc2ccccc2o1)S(C)(=O)=O` was 13.9%.
The value for `COCCn1c(C(=O)NCc2n[nH]c(C)n2)cc2ccccc21` was -0.294%; that for `OC1(CNc2ccc(Br)cn2)CCC1` was 16.3%.
As to `CS(=O)(=O)CCn1ccc(NCc2ccc(C#N)cc2)n1`, the cytotoxicity at 70.5 h is -0.713%.
The figure for `CN(C)c1ccc(C(=O)N2CCCCC2CC(N)=O)c(F)c1` (centres undefined) is -1.41%; for `OC1(CNc2ccc(Br)cn2)CCSCC1` it is 15.9%; for `Cc1nc(CN(C)C(=O)Nc2cccc(COC(C)C)c2C)no1` it is -4.14%.
For the compound `Cc1csc(C(C)(C)NCCNS(C)(=O)=O)n1`, the cytotoxicity at 70.5 h worked out at 18.5%.
The value for `Cc1csc(C(C)(C)NCCCS(C)(=O)=O)n1` was -2%; that for `CC1c2cc(F)ccc2CCN1CCS(=O)(=O)C(C)C` (centres undefined) was -3.51%; that for `CNS(=O)(=O)CC1CCCN1c1ccccn1` (centres undefined) was -4.24%.
The figure for `CC(Nc1ccn(CCS(C)(=O)=O)n1)c1ccc(C#N)cc1` (centres undefined) is -1.96%; for `CN(C)C(=O)CCCn1ccc(NCc2ccc(C#N)cc2)n1` it is -2.31%; for `CC1c2cc(F)ccc2CCN1CCCS(=O)(=O)C(C)C` (centres undefined) it is -2.78%.
`CNC(=O)NCC(=O)N(C)C(c1ccc(Cl)cc1)c1cccnc1` (centres undefined): the cytotoxicity at 70.5 h was 21.3%.
The value for `O=C1NCCCCC1Sc1ccccc1F` (centres undefined) was -11.2%; that for `CN(C)c1ncccc1CNCc1cccc(O)c1` was -12.2%.
The value for `Cc1ccc(CNC(=O)CN(CCC(N)=O)c2ccc(F)cc2)cc1` was -3.51%; that for `COc1ccc(CCC2CCCCN2)cc1OC` (centres undefined) was 19.8%.
The value for `N#CCCCS(=O)(=O)NC1(c2cccc(Br)c2)CC1` was -8.99%; that for `CCN(CC)C(=O)NC(C)c1ccc(Oc2cccnc2)c(F)c1` (centres undefined) was 16%; that for `Cc1ccc(C(F)(F)F)cc1NC(=O)C1CCCN1` (centres undefined) was -8.7%.
In the case of `O=C(NCC1(O)CCC1)c1c(O)cc(Cl)cc1Cl`, the cytotoxicity at 70.5 h is -1.39%.
On to `O=C(NCC1(O)CCC1)c1c(O)cc(F)cc1F`, for which the cytotoxicity at 70.5 h was 13.9%.
The value for `CSCC(=O)N1CCOC(c2nc(C(C)C)n[nH]2)C1` (centres undefined) was -7.67%; that for `CC1(C)CN(C(=O)c2cc(F)cc3[nH]cnc23)CCS1` was -11%; that for `Cc1noc(NCc2cn(C)nc2-c2ccncc2)n1` was -11.4%.
Turning to `CCN1CCCCC1C(=O)N1CCN(C(=O)OC)CC1` (centres undefined), the cytotoxicity at 70.5 h is -5.22%.
On to `CCN1CCCCC1C(=O)N1CCC(OCCOC)CC1` (centres undefined), for which the cytotoxicity at 70.5 h came to 1.39%.
The figure for `CC(=O)Nc1cccc(CN2CCN(C3=NCC(C)(C)S3)CC2)c1` is -10.7%; for `COC(=O)N1CCCC(C(=O)NCCc2c[nH]c3cc(C)ccc23)C1` (centres undefined) it is -10.8%; for `Cc1ccc(CN(C)C(=O)CN2CCc3ccccc3C2)o1` it is -6.98%.
The value for `OCc1cccc(CNCc2cccc3c2OCCO3)c1` was -1.29%; that for `Cc1cc(C(=O)N(CC(=O)O)CC(C)C)ccc1F` was -7.96%.
The figure for `O=C1CCC(=O)N1CCn1nnc(-c2ccc(Br)cc2)n1` is -2.01%.
Consider `COc1ccc(C)cc1CN(CC(N)=O)C(C)C`, for which the cytotoxicity at 70.5 h is -3.29%.
The value for `CCN(Cc1ccccn1)C1CCN(c2ccccc2)C1=O` (centres undefined) was -5.06%; that for `Cc1nn(C)c(C)c1C1CCCN1C(=O)c1ccc(C(N)=O)s1` (centres undefined) was 17.5%; that for `Cc1nccc(CNC(=O)NC(c2ncc(C)s2)C2CC2)n1` (centres undefined) was 17.4%.
The figure for `O=C(NCCOc1cccc(Cl)c1Cl)N1CCC2(CC1)OCCO2` is -4.01%.
The figure for `Cc1nc(C(C)C)sc1C(C)N(C)C(=O)c1ccc(=O)n(C)n1` (centres undefined) is -1.77%.
Consider `CCCOc1cc(CNC(=O)Nc2cccc(C(C)=O)c2)ccn1`, for which the cytotoxicity at 70.5 h was -0.91%.
Turning to `CCNC(=O)c1ccc(NC2CCOC3(CCCCC3)C2)nn1` (centres undefined), the cytotoxicity at 70.5 h was found to be 16.8%.
The value for `CCCOc1cc(CNC(=O)Nc2ccc(C)cc2)ccn1` was -2.77%.
The figure for `CNS(=O)(=O)CC(=O)NCc1cc2c(s1)CCC(C)(C)C2` is -1.59%; for `CNS(=O)(=O)CC(=O)NCc1cc2c(s1)CCCCC2` it is -1.17%.
The figure for `NC(=O)COc1cccc(Cn2cc(Br)cn2)c1` is -1.2%; for `NC(=O)CN1CCc2c(Br)ccc(F)c2C1` it is 3.38%; for `CNC(=O)NC(=O)CN1CCc2c(Br)ccc(F)c2C1` it is -0.281%.
Regarding `O=C(NCCN1CCOCC1)c1cc(-c2ccccc2Cl)[nH]n1`, the cytotoxicity at 70.5 h stood at 1.45%.
The value for `Cc1ccc(-c2cc(C(=O)NCCN3CCOCC3)n[nH]2)s1` was -3.46%; that for `NC(=O)c1cnc(NC2CCN(C(=O)C3CC3)CC2)c(Cl)c1` was -0.537%; that for `Cc1cccc(C(=O)NCC2CCS(=O)(=O)C2)n1` (centres undefined) was -1.5%.
The value for `CCc1ncncc1C(=O)NCCNS(=O)(=O)c1ccc(C)cc1` was -1.77%.
The value for `O=C(NCCN1CCOCC1)NCc1ccccc1-n1cccn1` was -0.678%.
Consider `CC(C)(C)n1ncc2c(=O)[nH]c(N3CCN(CC(F)F)CC3)nc21`, for which the cytotoxicity at 70.5 h was -4.17%.
The figure for `Cc1cnc2c(S(=O)(=O)NC(=O)C(C)OCC3CC3)cccc2c1` (centres undefined) is -0.0884%; for `Cc1nnc(NCC(c2ccco2)N2CCCCC2)c(C#N)c1C` (centres undefined) it is -0.616%.
The value for `Cc1csc(-c2cccc(NC(=O)NCC(C)(C)C(N)=O)c2)n1` was -0.0997%; that for `Cc1ccc(NS(=O)(=O)c2ccc(C#N)cc2)c(CN(C)C)c1` was -3.45%; that for `Clc1ccccc1CNC(Cn1cncn1)c1ccccc1` (centres undefined) was 14.7%.
Regarding `CCOC(C)C(=O)NS(=O)(=O)c1cccc2cc(C)cnc12` (centres undefined), the cytotoxicity at 70.5 h is 1.55%.
On to `CC(C)(C)n1ncc2c(=O)[nH]c(N3CC(O)C3)nc21`, for which the cytotoxicity at 70.5 h is 0.684%.
The figure for `Cc1cn2c(CN(C)C(=O)c3ncoc3C)c(C)nc2s1` is -0.848%; for `Cc1cn2c(CN(C)C(=O)c3cccnc3O)c(C)nc2s1` it is -4.29%.
The figure for `COC(C)C(=O)NS(=O)(=O)c1cccc2cc(C)cnc12` (centres undefined) is -2.88%.
Consider `Cc1cc(C(=O)N(C)C(C)CC(C)C)on1` (centres undefined), for which the cytotoxicity at 70.5 h was -1.57%.
The figure for `Cc1occc1C(=O)N1CCOC2(CCCC2)C1` is -3.65%; for `FC(F)Oc1ccc(CN2CCOC3(CCOCC3)C2)cc1Cl` it is 1.46%.
For the compound `Fc1cc(CN2CCOC3(CCOCC3)C2)ccc1Cl`, the cytotoxicity at 70.5 h is -1.5%.
The value for `CCCOC1CCCN(C(=O)c2ccnc(N3CCN(C)CC3)c2)C1` (centres undefined) was 23%; that for `CC(C)(C)NC(=O)COc1ccc(Oc2ccccn2)cc1` was -6.32%.
As to `COc1ccc(Oc2ccc(CNC(=O)C3CCS(=O)(=O)C3)cn2)cc1` (centres undefined), the cytotoxicity at 70.5 h is -6.05%.
The value for `COc1ccc(OC)c(CCC(=O)Nc2cc(C)n[nH]2)c1` was -13.4%; that for `O=C(c1cnc(NCC2CCCO2)c(Cl)c1)N1CCCCC1` (centres undefined) was 30.2%; that for `Cc1cc(C)c(CNC(=O)N2CCNC(=O)C2)c(=O)[nH]1` was -4.49%.
In the case of `O=C(CN1CCc2cncnc2C1)N1CCc2sccc2C1`, the cytotoxicity at 70.5 h was -11%.
The figure for `CN(C)C1Cc2ccccc2N(S(=O)(=O)c2cccc(C#N)c2)C1` (centres undefined) is -4.2%.
As to `CN(C)C1Cc2ccccc2N(S(=O)(=O)c2ccc(C#N)cc2)C1` (centres undefined), the cytotoxicity at 70.5 h is -7.27%.
The value for `COc1ccc(C)cc1CC(=O)Nc1cc(C)n[nH]1` was -8.99%; that for `COc1cc(OC)cc(N2CCC(NCc3cccs3)C2=O)c1` (centres undefined) was -0.0615%; that for `CN(CCCNC(=O)NCc1ccncc1)CC(F)(F)F` was -8.47%.
The value for `CCc1nsc(N2CCOC3(CCCC3)C2)n1` was -3.55%.
Consider `CC(C)c1cnc(CN2CCCC(c3ccn[nH]3)C2)o1` (centres undefined), for which the cytotoxicity at 70.5 h was -7.68%.
The figure for `CCc1ocnc1C(=O)N1CCOCC1CC(=O)c1ccccc1` (centres undefined) is -7.1%.
`Cc1cnn(CCNCc2cc(C)no2)c1`: the cytotoxicity at 70.5 h stood at 2.88%.
The value for `N#Cc1cccc(CN2CCCC2c2ccc[nH]2)c1` (centres undefined) was 15.2%; that for `CCc1ccc(C2CCCN2C(=O)Cc2ccc(NC(C)=O)cc2)o1` (centres undefined) was 10.6%.
For the compound `CCN(CC)C(=O)CCCNC(=O)c1csc(NC2CC2)n1`, the cytotoxicity at 70.5 h was -9.34%.
The value for `O=C1CSCN1CC(=O)N1CCCC1c1nc2ccccc2s1` (centres undefined) was 2.26%; that for `CC(C)C(C)N(C)Cc1nnc(-c2ccco2)o1` (centres undefined) was 17.4%.
The figure for `CCOC(=O)NCCC(=O)NCc1ccnc(Oc2ccc(F)cc2)c1` is -1.77%.
The figure for `CC(Cc1ccccc1F)NC(=O)CCc1nc(-c2nnc[nH]2)no1` (centres undefined) is -4.06%.
For `CNC(=O)c1cccc(NC(=O)c2ccnc(N(C)C)c2)c1C`, the cytotoxicity at 70.5 h was -0.673%.
The figure for `Cc1cc(NC(=O)CNc2ccc(Br)cc2F)on1` is 2.93%; for `Cn1c(C2CCCN2C(=O)CN2CCCC2=O)nc2ccccc21` (centres undefined) it is -3.63%.
As to `Cc1nc2cc(=O)[nH]n2c(C)c1CC(=O)Nc1cnn(C(C)(C)C)c1`, the cytotoxicity at 70.5 h is -3.02%.
For the compound `Cc1noc(C)c1C(=O)NCc1cc[nH]n1`, the cytotoxicity at 70.5 h came to 11.4%.
The value for `CCC(CC)C(=O)NCC1(NC(C)c2ccccc2)CCOCC1` (centres undefined) was 16.6%.

For the origin of these results see ChEMBL document CHEMBL3507680, “University of Dundee, Gates Library screen for HepG2 cell viability”.
